From the NIST ThermoML archive (doi:10.1016/j.jct.2011.01.014)
Numbers after ± are expanded uncertainties.

Test: xn = mol fraction of the nth substance listed
Conditions: 101 kPa, Liquid; for speed of sound: sound velocity cell; for mass density: Vibrating tube method

CC(=O)[O-].[NH3+]CCO [2-hydroxyethylammonium acetate] + O
Conditions | mass density, 308.15 K [kg/m3] | mass density, 310.65 K [kg/m3] | mass density, 313.15 K [kg/m3] | mass density, 315.15 K [kg/m3] | speed of sound, 305.65 K [m/s] | speed of sound, 308.15 K [m/s] | speed of sound, 310.65 K [m/s] | speed of sound, 313.15 K [m/s]
x1 = 0.051 | 1047.04 ± 0.81 | 1045.86 ± 0.81 | 1044.65 ± 0.8 | 1043.45 ± 0.8 | 1689.8 ± 2.6 | 1690.8 ± 2.6 | 1691.5 ± 2.5 | 1692 ± 2.5
x1 = 0.1019 | 1076 ± 0.4 | 1074.78 ± 0.4 | 1073.54 ± 0.4 | 1072.29 ± 0.4 | 1763.6 ± 1.4 | 1762.3 ± 1.3 | 1760.8 ± 1.3 | 1759.2 ± 1.3
x1 = 0.1963 | 1106.1 ± 0.3 | 1104.76 ± 0.3 | 1103.42 ± 0.3 | 1102.07 ± 0.29 | 1817.3 ± 1.2 | 1814 ± 1.2 | 1810.6 ± 1.2 | 1807.1 ± 1.2
x1 = 0.2894 | 1120.43 ± 0.32 | 1119.06 ± 0.32 | 1117.69 ± 0.32 | 1116.31 ± 0.32 | 1823.5 ± 1.4 | 1819.3 ± 1.4 | 1815.2 ± 1.4 | 1811.1 ± 1.4
x1 = 0.3959 | 1129.69 ± 0.48 | 1128.3 ± 0.48 | 1126.9 ± 0.48 | 1125.5 ± 0.48 | 1811.5 ± 1.6 | 1806.9 ± 1.6 | 1802.4 ± 1.6 | 1797.7 ± 1.6
x1 = 0.5016 | 1134.77 ± 0.71 | 1133.38 ± 0.7 | 1131.98 ± 0.7 | 1130.58 ± 0.7 | 1799.8 ± 1.9 | 1795 ± 1.9 | 1790.2 ± 1.9 | 1785.3 ± 1.9
x1 = 0.5821 | 1137.3 ± 0.92 | 1135.91 ± 0.91 | 1134.53 ± 0.91 | – | 1797 ± 2 | 1792.1 ± 2 | 1787.2 ± 2 | 1782.3 ± 2
x1 = 0.6837 | 1139.14 ± 1.2 | 1137.76 ± 1.2 | 1136.37 ± 1.2 | – | 1788.2 ± 2.3 | 1783.2 ± 2.3 | 1778.2 ± 2.3 | 1773.2 ± 2.3
x1 = 0.7763 | 1140.95 ± 1.5 | 1139.58 ± 1.5 | 1138.21 ± 1.5 | – | 1786.6 ± 2.6 | 1781.4 ± 2.6 | 1776.3 ± 2.6 | 1771.3 ± 2.6
x1 = 0.8761 | 1142.23 ± 1.9 | 1140.87 ± 1.9 | 1139.5 ± 1.9 | – | 1776.6 ± 2.8 | 1771.3 ± 2.8 | 1766 ± 2.8 | 1760.8 ± 2.8
x1 = 0.9137 | 1142.59 ± 2.1 | 1141.2 ± 2.1 | 1139.84 ± 2.1 | – | 1778.1 ± 2.9 | 1772.8 ± 2.9 | 1767.5 ± 2.9 | 1762.3 ± 2.9
x1 = 1 | 1143.39 ± 2.5 | 1141.96 ± 2.5 | 1140.55 ± 2.5 | – | 1773.4 ± 3.2 | 1767.9 ± 3.2 | 1762.5 ± 3.2 | 1757.2 ± 3.2
